According to patent US20100179093A1, “Neoropeptide-2-Receptor (Y-2R) Agonists” (priority 2008, published 2010):

Legend:
Format in all cases: cell-based
hNPY2R [1] = target: T1, hNPY2R (Homo sapiens, UniProt P49146); assay: CaFlux Assay (FLIPR), Y2R; parameters: expressed in transfected cells; host or cells: HEK-293 stably expressing G protein chimera Gaqi9
T1 sequence (P49146 1-381): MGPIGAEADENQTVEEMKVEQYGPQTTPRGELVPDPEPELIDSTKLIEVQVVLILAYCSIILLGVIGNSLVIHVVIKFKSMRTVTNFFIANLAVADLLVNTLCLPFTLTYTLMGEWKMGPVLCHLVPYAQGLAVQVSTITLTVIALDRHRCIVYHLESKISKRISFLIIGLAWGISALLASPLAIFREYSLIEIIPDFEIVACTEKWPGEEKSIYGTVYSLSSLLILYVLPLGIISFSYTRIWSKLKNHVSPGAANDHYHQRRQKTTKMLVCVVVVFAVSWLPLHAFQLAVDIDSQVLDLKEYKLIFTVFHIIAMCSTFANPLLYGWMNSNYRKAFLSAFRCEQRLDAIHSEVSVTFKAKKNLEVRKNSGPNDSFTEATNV

Y5R = target: T2, Y5R (Homo sapiens, UniProt Q15761); assay: CaFlux Assay (FLIPR), Y5R; settings: for Emax: read-out: Y5R FLIPR, percentage in parentheses under the EC50;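 for Emax: percent of the maximal response of the positive control agonist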
T2 sequence (Q15761 1-445): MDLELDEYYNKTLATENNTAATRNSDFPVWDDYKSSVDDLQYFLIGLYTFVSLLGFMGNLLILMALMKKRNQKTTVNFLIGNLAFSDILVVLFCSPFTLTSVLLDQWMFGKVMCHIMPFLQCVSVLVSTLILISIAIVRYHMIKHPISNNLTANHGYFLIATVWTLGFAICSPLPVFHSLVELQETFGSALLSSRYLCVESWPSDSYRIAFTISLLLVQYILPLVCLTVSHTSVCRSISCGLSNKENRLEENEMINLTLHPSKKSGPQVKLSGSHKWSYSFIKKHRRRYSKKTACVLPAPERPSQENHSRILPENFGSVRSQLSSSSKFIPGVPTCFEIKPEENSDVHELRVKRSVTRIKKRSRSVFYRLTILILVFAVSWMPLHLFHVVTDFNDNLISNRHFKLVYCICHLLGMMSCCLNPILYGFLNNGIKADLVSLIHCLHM

hNPY2R [2] = target: T1, hNPY2R; assay: cAMP Agonist Assay, HEK293/hNPY2R cells; parameters: expressed in transfected cells; host or cells: HEK293/hNPY2R (G418 selection)
Y4R = Y4R (Homo sapiens, UniProt P50391); assay: CaFlux Assay (FLIPR), Y4R
Y1R = target: T3, Y1R (Homo sapiens, UniProt P25929); assay: CaFlux Assay (FLIPR), Y1R
T3 sequence (P25929 1-384): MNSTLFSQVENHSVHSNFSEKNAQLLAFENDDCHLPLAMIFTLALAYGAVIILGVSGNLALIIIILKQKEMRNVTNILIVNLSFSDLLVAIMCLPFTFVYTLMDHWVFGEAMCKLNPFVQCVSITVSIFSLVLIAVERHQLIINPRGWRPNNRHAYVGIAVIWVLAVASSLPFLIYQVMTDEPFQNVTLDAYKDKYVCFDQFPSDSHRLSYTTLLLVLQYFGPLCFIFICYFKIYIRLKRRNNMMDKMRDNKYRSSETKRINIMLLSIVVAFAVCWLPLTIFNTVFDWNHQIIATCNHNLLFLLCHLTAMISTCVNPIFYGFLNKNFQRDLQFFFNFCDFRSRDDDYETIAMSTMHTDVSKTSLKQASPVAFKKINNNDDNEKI

Y4R, sequence (P50391 whole entry): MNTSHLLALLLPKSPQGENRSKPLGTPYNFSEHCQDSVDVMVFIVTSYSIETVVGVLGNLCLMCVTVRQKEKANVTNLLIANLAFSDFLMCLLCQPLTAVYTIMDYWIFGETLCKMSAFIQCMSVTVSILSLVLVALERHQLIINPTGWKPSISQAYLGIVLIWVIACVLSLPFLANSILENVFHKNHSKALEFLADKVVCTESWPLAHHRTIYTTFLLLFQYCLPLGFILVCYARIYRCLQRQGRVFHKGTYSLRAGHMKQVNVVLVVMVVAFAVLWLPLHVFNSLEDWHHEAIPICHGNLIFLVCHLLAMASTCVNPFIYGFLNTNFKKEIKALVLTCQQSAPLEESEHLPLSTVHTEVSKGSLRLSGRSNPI

Row | SMILES | EC50 (hNPY2R [1]) [nM] | EC50 (Y5R) [nM] | Emax (Y5R) [%] | EC50 (hNPY2R [2]) [nM] | EC50 (Y4R) [nM] | EC50 (Y1R) [nM]
1 | CCCCCCCCCCCCCCCCCCCC(=O)NCCOCCNC(=O)CCC(=O)NCCCC[C@H](NC(=O)[C@@H](N)[C@@H](C)CC)C(=O)N1CCN(c2ccc3ncn(CC(=O)N[C@@H](CCCNC(=N)N)C(=O)N[C@@H](Cc4c[nH]cn4)C(=O)N[C@@H](Cc4ccc(O)cc4)C(=O)N[C@@H](CC(C)C)C(=O)N[C@@H](CC(N)=O)C(=O)N[C@@H](Cc4c[nH]c5ccccc45)C(=O)N[C@H](C(=O)N[C@H](C(=O)N[C@@H](CCCNC(=N)N)C(=O)N[C@@H](CCC(N)=O)C(=O)N(C)[C@@H](CCCNC(=N)N)C(=O)N[C@@H](Cc4ccc(O)cc4)C(N)=O)[C@@H](C)O)C(C)C)c(=O)c3c2)CC1 [Example 39] | 0.073 | 285 | 50 | 0.21 | > 5000 | > 5000
2 | CCCCCCCCCCCCCCCC(=O)NCCCCCC(=O)N[C@H](C(=O)N[C@@H](CCCCN)C(=O)N1CCN(c2ccc3ncn(CC(=O)N[C@@H](CCCNC(=N)N)C(=O)N[C@@H](Cc4c[nH]cn4)C(=O)N[C@@H](Cc4ccc(O)cc4)C(=O)N[C@@H](CC(C)C)C(=O)N[C@@H](CC(N)=O)C(=O)N[C@@H](Cc4c[nH]c5ccccc45)C(=O)N[C@H](C(=O)N[C@H](C(=O)N[C@@H](CCCNC(=N)N)C(=O)N[C@@H](CCC(N)=O)C(=O)N[C@@H](CCCNC(=N)N)C(=O)N[C@@H](Cc4ccc(O)cc4)C(N)=O)[C@@H](C)O)C(C)C)c(=O)c3c2)CC1)[C@@H](C)CC [Example 17] | 0.09 | 27 | – | 0.25 | 14500 | > 5000
3 | CCCCCCCCCCCCCCCCCCCC(=O)N[C@@H](CCC(=O)N[C@@H](CCC(=O)NCCCC[C@H](NC(=O)[C@@H](N)[C@@H](C)CC)C(=O)N1CCN(c2ccc3ncn(CC(=O)N[C@@H](CCCNC(=N)N)C(=O)N[C@@H](Cc4c[nH]cn4)C(=O)N[C@@H](Cc4ccc(O)cc4)C(=O)N[C@@H](CC(C)C)C(=O)N[C@@H](CC(N)=O)C(=O)N[C@@H](Cc4c[nH]c5ccccc45)C(=O)N[C@H](C(=O)N[C@H](C(=O)N[C@@H](CCCNC(=N)N)C(=O)N[C@@H](CCC(N)=O)C(=O)N(C)[C@@H](CCCNC(=N)N)C(=O)N[C@@H](Cc4ccc(O)cc4)C(N)=O)[C@@H](C)O)C(C)C)c(=O)c3c2)CC1)C(=O)O)C(=O)O [Example 31] | 0.091 | 634 | 60 | 0.07 | > 5000 | > 5000
4 | CCCCCCCCCCCCCCCCCCCC(=O)N[C@H](C(=O)N[C@H](C(=O)NCCCC[C@H](NC(=O)[C@@H](N)[C@@H](C)CC)C(=O)N1CCN(c2ccc3ncn(CC(=O)N[C@@H](CCCNC(=N)N)C(=O)N[C@@H](Cc4c[nH]cn4)C(=O)N[C@@H](Cc4ccc(O)cc4)C(=O)N[C@@H](CC(C)C)C(=O)N[C@@H](CC(N)=O)C(=O)N[C@@H](Cc4c[nH]c5ccccc45)C(=O)N[C@H](C(=O)N[C@H](C(=O)N[C@@H](CCCNC(=N)N)C(=O)N[C@@H](CCC(N)=O)C(=O)N(C)[C@@H](CCCNC(=N)N)C(=O)N[C@@H](Cc4ccc(O)cc4)C(N)=O)[C@@H](C)O)C(C)C)c(=O)c3c2)CC1)[C@@H](C)O)[C@@H](C)O [Example 43] | 0.074 | 243 | 23 | 0.26 | > 5000 | > 5000
5 | CCCCCCCCCCCC(=O)NCCCC[C@H](NC(=O)[C@@H](NC(C)=O)[C@@H](C)CC)C(=O)N1CCN(c2ccc3ncn(CC(=O)N[C@@H](CCCNC(=N)N)C(=O)N[C@@H](Cc4c[nH]cn4)C(=O)N[C@@H](Cc4ccc(O)cc4)C(=O)N[C@@H](CC(C)C)C(=O)N[C@@H](CC(N)=O)C(=O)N[C@@H](Cc4c[nH]c5ccccc45)C(=O)N[C@H](C(=O)N[C@H](C(=O)N[C@@H](CCCNC(=N)N)C(=O)N[C@@H](CCC(N)=O)C(=O)N(C)[C@@H](CCCNC(=N)N)C(=O)N[C@@H](Cc4ccc(O)cc4)C(N)=O)[C@@H](C)O)C(C)C)c(=O)c3c2)CC1 [Example 7] | 4.7 | 12800 | – | 5.4 | 14500 | 6430
